Measured values reported in patent US20190233836A1, “MEANS AND METHODS TO INCREASE COUMARIN PRODUCTION” (VIB VZW, priority 2016, published 2019).

System: COSY
Test: Enzymatic activity of COSY: in vitro assay combined with tobacco 4CL and CoA
Assay type: biochemical, Arabidopsis thaliana
Conditions: 4CL and COSY added simultaneously, CoA present; purified COSY expressed in E. coli
From the text: FIG. 7: Enzymatic activity of COSY. COSY and 4CL were supplemented with either 2-hydroxy-p-coumaric acid (2OHpCA), 6-hydroxycaffeic acid (6OHCA) or 6-hydroxyferulic acid (6OHFA). Umbelliferone, esculetin and scopoletin were formed, respectively, only in the presence of CoA and the enzymes 4CL and COSY. The y-axis represents the normalized abundance, error bars show the standard deviation (n=4).
Although the idea of spontaneous isomerization and lactonisation in the biosynthesis of coumarins is now widely accepted in literature (Matsumoto S. et al., 2012; Yang et al., 2015) our cosy mutant data in Example 1 clearly contradict this. When we took a closer examination at the lactonisation reaction of the coumarin core structures we investigated the possible resemblance to an esterification-type reaction mediated by BAHD acyltransferases. BAHD family members utilize activated CoA-thioesters as acyl-donors and an alcohol or amine as the acyl acceptor to form an ester or amide, respectively. We therefore hypothesized that COUMARIN SYNTHASE (COSY) could be a BAHD acyltransferase responsible for the isomerization and lactonization of ortho-hydroxy-cinnamoyl CoA thioesters into coumarins. To verify the catalytic activity of COSY in vitro, COSY was expressed in Escherichia coli and the corresponding COSY protein purified. Potential substrates were chosen based on the phenolic profiling of the cosy mutants. […] Because neither 2′-hydroxy-p-coumaroyl-CoA, 6′-caffeoyl-CoA nor 6′-hydroxyferuloyl-CoA were commercially available, the corresponding acids were synthesized and the enzymatic assays were performed in combination with a tobacco 4-COUMARATE:CoA LIGASE (4CL) to catalyze the formation of the corresponding CoA thioesters in situ (Beuerle & Pichersky, 2002). In the samples where 4CL and COSY were added simultaneously, seemingly 100% 2-hydroxy-p-coumaric acid and 6-hydroxyferulic acid were converted into the corresponding coumarins, i.e., umbelliferone and scopoletin. […]

Compound | substrate converted into the corresponding coumarin (umbelliferone, scopoletin, esculetin)
COc1cc(/C=C/C(=O)O)c(O)cc1O [6-hydroxyferulic acid] | ~100%
O=C(O)/C=C/c1ccc(O)cc1O [2-hydroxy-p-coumaric acid] | ~100%
O=C(O)/C=C/c1cc(O)c(O)cc1O [6-hydroxycaffeic acid] | About 50%
